Reference: US20080312184A1 (priority 2005, published 2008)

Assays:
[1] = test system: alternaria leaf spot pathogen of apples; assay: Control Test on Alternaria Leaf Spot of Apples; assay type: in vivo, apples (cultivar: ourin); conditions: Table 5, single active ingredient, examined after 20 days
From the text: After a liquid chemical was dried, 10 trees attacked by alternaria leaf spot pathogen of apples which were previously arranged to be diseased were placed on the windward side and apples of test pots placed on the leeward side by wind of an air conditioner were wind-inoculated.

brown patch pathogen = assay: Control Test on Brown Patch of Turf Grass; assay type: in vivo, grass (cultivar: Pentocross); conditions: Table 6, single active ingredient, soaked into soil, kept for 20 days
From the text: Then, the area ratio of brown patch pathogen-attacked portion to the whole surface of the pot was examined according to the same index as in Test Example 1.

Q: Which results are given for `CC(C)CC(C)c1sccc1NC(=O)c1cn(C)nc1C(F)(F)F` (racemic) [P (penthiopyrad), (RS)—N-[2-(1,3-dimethylbutyl)thiophen-3-yl]-1-methyl-3-tri fluoromethyl-1H-pyrazole-4-carboxamide]?
A: Control Value ([1]; treated concentration 10 ppm): 50; Control Value (brown patch pathogen; treated concentration 10 ppm): 53

Q: How did the “Control Value” ([1]; treated concentration 50 ppm) turn out when `CCCCCCCCCCCCNC(=N)N` [Dodine, dodine] was run?
A: 44

Q: Which “Control Value” ([1]; treated concentration 30 ppm) does the source give for `O=C1C(Cl)=C(Cl)C(=O)N1c1ccc(F)cc1` [Fluoroimide, fluoroimide] here?
A: 45

Q: For `Clc1ccc(CSC(Cn2cncn2)=Nc2ccc(Cl)cc2Cl)cc1` [Imibenconazole, imibenconazole], which “Control Value” ([1]; treated concentration 10 ppm) is on record?
A: 42

Q: How did the “Control Value” ([1]; treated concentration 10 ppm) turn out when `CC1(C)COC(C)(CCCc2ccc(Cl)cc2)N1C(=O)n1ccnc1.CC1(C)COC(C)(CCCc2ccc(Cl)cc2)N1C(=O)n1ccnc1.O=C(O)/C=C/C(=O)O` (centres unmarked) [Oxpoconazole fumarate, oxpoconazole fumarate] was run?
A: 46

Q: Which “Control Value” (brown patch pathogen; treated concentration 20 ppm) does the source give for `CC1=C(C(=O)Nc2ccccc2)S(=O)(=O)CCO1` [Oxycarboxin, oxycarboxin] here?
A: 42

Q: Which “Control Value” (brown patch pathogen; treated concentration 10 ppm) does the source give for `C[Si](C)(C)CC(O)(Cn1cncn1)c1ccc(F)cc1` (centres unmarked) [Simeconazole, simeconazole] here?
A: 48
